In US6914045B2, “Glycopeptide antibiotics” (Wyeth Holdings Corporation, priority 2001, dated 2005):
Values after ≈ are worked out from the molar mass of the structure shown.

Legend:
Assay in all cases: in vitro antibacterial evaluation, MIC by broth dilution
Assay type in all cases: cell-based
[1] = system: Enterococcus sp.; settings: broth dilution, 18 hours at 35° C.
Method: (§1) Methods for in vitro Antibacterial Evaluation (Table 1)
(§2) The minimum inhibitory concentration (MIC), the lowest concentration of the antibiotic which inhibits growth of the test organism, is determined by the broth dilution method using Muller-Hinton II […] (Baltimore Biological Laboratories) following the recommendations of the National Committee for Clinical Laboratory Standards [Methods for dilution antimicrobial susceptibility tests for bacteria that grow aerobically, approved standard M7-A2, National Committee for Clinical Laboratory Standards, Villanova, Pa.].
(§3) An inoculum level of 5×10^5 CFU/mL, and a range of antibiotic concentrations (64-0.06 μg/mL) is used. […] The test organisms include a spectrum of Gram-positive bacteria comprised of Staphylococcus sp., Streptococcus sp. and Enterococcus sp. These organisms include recent clinical isolates that are resistant to methicillin, penicillin and/or vancomycin.

[2] = system: Staphylococcus sp.; settings: broth dilution, 18 hours at 35° C.; for MIC Staphylococcus aureus (GC 1131): strain GC 1131; for MIC Staphylococcus aureus (ATCC 29213): strain ATCC 29213; for MIC Staphylococcus aureus (GC 3051): strain GC 3051; for MIC Staphylococcus aureus (GC 3053): strain GC 3053; for MIC Staphylococcus aureus (GC 4541): strain GC 4541; for MIC Staphylococcus aureus (GC 4542): strain GC 4542; for MIC Staphylococcus aureus-SMITH (GC 4543): strain GC 4543; for MIC Staphylococcus aureus (GC 4544): strain GC 4544; for MIC Staphylococcus aureus (GC 4545): strain GC 4545; for MIC Staphylococcus haemolyticus (GC 4546): strain GC 4546; for MIC Coagulase Negative Staphylococcus (GC 4547): strain GC 4547; for MIC Coagulase Negative Staphylococcus (GC 4548): strain GC 4548; for MIC Coagulase Negative Staphylococcus (GC 4549): strain GC 4549; for MIC Coagulase Negative Staphylococcus (GC 4551): strain GC 4551; for MIC Coagulase Negative Staphylococcus (GC 6257): strain GC 6257
Method: as §1, §2, §3

[3] = system: Streptococcus sp.; settings: broth dilution, 18 hours at 35° C.
Method: as §1, §2, §3

[4] = system: Escherichia coli; settings: 18 hours at 35° C.
[5] = inoculum 5×10^5 CFU/mL, strain ATCC 29212
[6] = inoculum 5×10^5 CFU/mL, strain GC 2242
[7] = inoculum 5×10^5 CFU/mL, strain GC 2243
[8] = inoculum 5×10^5 CFU/mL, strain GC 2691
[9] = inoculum 5×10^5 CFU/mL, strain GC 3059
[10] = inoculum 5×10^5 CFU/mL, strain GC 4552
[11] = inoculum 5×10^5 CFU/mL, strain GC 4553
[12] = inoculum 5×10^5 CFU/mL, strain GC 4554
[13] = inoculum 5×10^5 CFU/mL, strain GC 4556
[14] = inoculum 5×10^5 CFU/mL, strain GC 4557
[15] = inoculum 5×10^5 CFU/mL, strain GC 4558
[16] = inoculum 5×10^5 CFU/mL, strain GC 6189
[17] = inoculum 5×10^5 CFU/mL, strain ATCC 6301
[18] = inoculum 5×10^5 CFU/mL, strain GC 1894
[19] = inoculum 5×10^5 CFU/mL, strain GC 4563
[20] = inoculum 5×10^5 CFU/mL, strain GC 4564
[21] = inoculum 5×10^5 CFU/mL, strain GC 4565

## CC(c1ccccc1)C1NC(=O)CNC(=O)C(CO)NC(=O)C(C(O)C2CNC(=N)N2C2OC(CO)C(O)C(O)C2O)NC(=O)C(C(O)C2CNC(=N)N2)NC(=O)C(Cc2ccc(OC3OC(CO)C(OC4OC5COC(c6ccc(C(=O)c7cc(I)c(I)c(I)c7)cc6)OC5C(O)C4O)C(O)C3O)cc2)NC1=O (stereo not shown) [Example 187]
[1]
  MIC Enterococcus avium (GC 4558): 16 µg/mL (≈ 8.58 µM)
  MIC Enterococcus faecalis (ATCC 29212): 64 µg/mL (≈ 34.3 µM)
  MIC Enterococcus faecalis (GC 2242): 64 µg/mL (≈ 34.3 µM)
  MIC Enterococcus faecalis (GC 2691): 16 µg/mL (≈ 8.58 µM)
  MIC Enterococcus faecalis (GC 3059): 128 µg/mL (≈ 68.6 µM)
  MIC Enterococcus faecalis (GC 4552): 64 µg/mL (≈ 34.3 µM)
  MIC Enterococcus faecalis (GC 4553): 32 µg/mL (≈ 17.2 µM)
  MIC Enterococcus faecalis (GC 4554): 64 µg/mL (≈ 34.3 µM)
  MIC Enterococcus faecalis (GC 6189): 16 µg/mL (≈ 8.58 µM)
  MIC Enterococcus faecium (GC 2243): 16 µg/mL (≈ 8.58 µM)
  MIC Enterococcus faecium (GC 4556): 128 µg/mL (≈ 68.6 µM)
  MIC Enterococcus faecium (GC 4557): 16 µg/mL (≈ 8.58 µM)
[1]; [5]
  MIC Enterococcus faecalis (ATCC 29212): 64 µg/mL (≈ 34.3 µM)
[1]; [6]
  MIC Enterococcus faecalis (GC 2242): 64 µg/mL (≈ 34.3 µM)
[1]; [7]
  MIC Enterococcus faecium (GC 2243): 16 µg/mL (≈ 8.58 µM)
[1]; [8]
  MIC Enterococcus faecalis (GC 2691): 16 µg/mL (≈ 8.58 µM)
[1]; [9]
  MIC Enterococcus faecalis (GC 3059): 128 µg/mL (≈ 68.6 µM)
[1]; [10]
  MIC Enterococcus faecalis (GC 4552): 64 µg/mL (≈ 34.3 µM)
[1]; [11]
  MIC Enterococcus faecalis (GC 4553): 32 µg/mL (≈ 17.2 µM)
[1]; [12]
  MIC Enterococcus faecalis (GC 4554): 64 µg/mL (≈ 34.3 µM)
[1]; [13]
  MIC Enterococcus faecium (GC 4556): 128 µg/mL (≈ 68.6 µM)
[1]; [14]
  MIC Enterococcus faecium (GC 4557): 16 µg/mL (≈ 8.58 µM)
[1]; [15]
  MIC Enterococcus avium (GC 4558): 16 µg/mL (≈ 8.58 µM)
[1]; [16]
  MIC Enterococcus faecalis (GC 6189): 16 µg/mL (≈ 8.58 µM)
[2]; inoculum 5×10^5 CFU/mL
  MIC Staphylococcus aureus (GC 1131): 64 µg/mL (≈ 34.3 µM)
[2]
  MIC Staphylococcus aureus (ATCC 29213): 64 µg/mL (≈ 34.3 µM)
  MIC Staphylococcus aureus (GC 1131): 64 µg/mL (≈ 34.3 µM)
  MIC Staphylococcus aureus (GC 3051): 64 µg/mL (≈ 34.3 µM)
  MIC Staphylococcus aureus (GC 3053): 32 µg/mL (≈ 17.2 µM)
  MIC Staphylococcus aureus (GC 4541): 64 µg/mL (≈ 34.3 µM)
  MIC Staphylococcus aureus (GC 4542): 64 µg/mL (≈ 34.3 µM)
  MIC Staphylococcus aureus-SMITH (GC 4543): 64 µg/mL (≈ 34.3 µM)
  MIC Staphylococcus aureus (GC 4544): 64 µg/mL (≈ 34.3 µM)
  MIC Staphylococcus aureus (GC 4545): 64 µg/mL (≈ 34.3 µM)
  MIC Staphylococcus haemolyticus (GC 4546): 128 µg/mL (≈ 68.6 µM)
  MIC Coagulase Negative Staphylococcus (GC 4547): 128 µg/mL (≈ 68.6 µM)
  MIC Coagulase Negative Staphylococcus (GC 4548): 16 µg/mL (≈ 8.58 µM)
  MIC Coagulase Negative Staphylococcus (GC 4549): 64 µg/mL (≈ 34.3 µM)
  MIC Coagulase Negative Staphylococcus (GC 4551): 32 µg/mL (≈ 17.2 µM)
  MIC Coagulase Negative Staphylococcus (GC 6257): 32 µg/mL (≈ 17.2 µM)
[3]
  MIC Streptococcus agalactiae (GC 4564): <0.12 µg/mL
  MIC Streptococcus pneumoniae (ATCC 6301): <0.12 µg/mL
  MIC Streptococcus pneumoniae (GC 1894): <0.12 µg/mL
  MIC Streptococcus pneumoniae (GC 4565): <0.12 µg/mL
  MIC Streptococcus pyogenes (GC 4563): 0.5 µg/mL (≈ 0.268 µM)
[3]; [17]
  MIC Streptococcus pneumoniae (ATCC 6301): <0.12 µg/mL
[3]; [18]
  MIC Streptococcus pneumoniae (GC 1894): <0.12 µg/mL
[3]; [19]
  MIC Streptococcus pyogenes (GC 4563): 0.5 µg/mL (≈ 0.268 µM)
[3]; [20]
  MIC Streptococcus agalactiae (GC 4564): <0.12 µg/mL
[3]; [21]
  MIC Streptococcus pneumoniae (GC 4565): <0.12 µg/mL
[4]
  MIC Escherichia coli (ATCC 25922): >128 µg/mL
  MIC Escherichia coli (GC 4559): >128 µg/mL
  MIC Escherichia coli (GC 4560): 128 µg/mL (≈ 68.6 µM)

## Cc1ccc(Oc2cccc(C3OCC4OC(OC5C(CO)OC(Oc6ccc(CC7NC(=O)C(C(C)c8ccccc8)NC(=O)CNC(=O)C(CO)NC(=O)C(C(O)C8CNC(=N)N8C8OC(CO)C(O)C(O)C8O)NC(=O)C(C(O)C8CNC(=N)N8)NC7=O)cc6I)C(O)C5O)C(O)C(O)C4O3)c2)cc1 (stereo not shown) [Example 197]
[1]
  MIC Enterococcus avium (GC 4558): 16 µg/mL (≈ 9.9 µM)
  MIC Enterococcus faecalis (ATCC 29212): >64 µg/mL
  MIC Enterococcus faecalis (GC 2242): >64 µg/mL
  MIC Enterococcus faecalis (GC 2691): >64 µg/mL
  MIC Enterococcus faecalis (GC 3059): >64 µg/mL
  MIC Enterococcus faecalis (GC 4552): >64 µg/mL
  MIC Enterococcus faecalis (GC 4553): 64 µg/mL (≈ 39.6 µM)
  MIC Enterococcus faecalis (GC 4554): >64 µg/mL
  MIC Enterococcus faecalis (GC 6189): 64 µg/mL (≈ 39.6 µM)
  MIC Enterococcus faecium (GC 2243): 64 µg/mL (≈ 39.6 µM)
  MIC Enterococcus faecium (GC 4556): >64 µg/mL
  MIC Enterococcus faecium (GC 4557): 8 µg/mL (≈ 4.95 µM)
[1]; [5]
  MIC Enterococcus faecalis (ATCC 29212): >64 µg/mL
[1]; [6]
  MIC Enterococcus faecalis (GC 2242): >64 µg/mL
[1]; [7]
  MIC Enterococcus faecium (GC 2243): 64 µg/mL (≈ 39.6 µM)
[1]; [8]
  MIC Enterococcus faecalis (GC 2691): >64 µg/mL
[1]; [9]
  MIC Enterococcus faecalis (GC 3059): >64 µg/mL
[1]; [10]
  MIC Enterococcus faecalis (GC 4552): >64 µg/mL
[1]; [11]
  MIC Enterococcus faecalis (GC 4553): 64 µg/mL (≈ 39.6 µM)
[1]; [12]
  MIC Enterococcus faecalis (GC 4554): >64 µg/mL
[1]; [13]
  MIC Enterococcus faecium (GC 4556): >64 µg/mL
[1]; [14]
  MIC Enterococcus faecium (GC 4557): 8 µg/mL (≈ 4.95 µM)
[1]; [15]
  MIC Enterococcus avium (GC 4558): 16 µg/mL (≈ 9.9 µM)
[1]; [16]
  MIC Enterococcus faecalis (GC 6189): 64 µg/mL (≈ 39.6 µM)
[2]; inoculum 5×10^5 CFU/mL
  MIC Staphylococcus aureus (GC 1131): 16 µg/mL (≈ 9.9 µM)
[2]
  MIC Staphylococcus aureus (ATCC 29213): 32 µg/mL (≈ 19.8 µM)
  MIC Staphylococcus aureus (GC 1131): 16 µg/mL (≈ 9.9 µM)
  MIC Staphylococcus aureus (GC 3051): 64 µg/mL (≈ 39.6 µM)
  MIC Staphylococcus aureus (GC 3053): 64 µg/mL (≈ 39.6 µM)
  MIC Staphylococcus aureus (GC 4541): 16 µg/mL (≈ 9.9 µM)
  MIC Staphylococcus aureus (GC 4542): 64 µg/mL (≈ 39.6 µM)
  MIC Staphylococcus aureus-SMITH (GC 4543): 16 µg/mL (≈ 9.9 µM)
  MIC Staphylococcus aureus (GC 4544): 32 µg/mL (≈ 19.8 µM)
  MIC Staphylococcus aureus (GC 4545): 32 µg/mL (≈ 19.8 µM)
  MIC Staphylococcus haemolyticus (GC 4546): 32 µg/mL (≈ 19.8 µM)
  MIC Coagulase Negative Staphylococcus (GC 4547): 32 µg/mL (≈ 19.8 µM)
  MIC Coagulase Negative Staphylococcus (GC 4548): 8 µg/mL (≈ 4.95 µM)
  MIC Coagulase Negative Staphylococcus (GC 4549): 8 µg/mL (≈ 4.95 µM)
  MIC Coagulase Negative Staphylococcus (GC 4551): 16 µg/mL (≈ 9.9 µM)
  MIC Coagulase Negative Staphylococcus (GC 6257): 4 µg/mL (≈ 2.48 µM)
[3]
  MIC Streptococcus agalactiae (GC 4564): 16 µg/mL (≈ 9.9 µM)
  MIC Streptococcus pneumoniae (ATCC 6301): 4 µg/mL (≈ 2.48 µM)
  MIC Streptococcus pneumoniae (GC 1894): 8 µg/mL (≈ 4.95 µM)
  MIC Streptococcus pneumoniae (GC 4565): 8 µg/mL (≈ 4.95 µM)
  MIC Streptococcus pyogenes (GC 4563): 16 µg/mL (≈ 9.9 µM)
[3]; [17]
  MIC Streptococcus pneumoniae (ATCC 6301): 4 µg/mL (≈ 2.48 µM)
[3]; [18]
  MIC Streptococcus pneumoniae (GC 1894): 8 µg/mL (≈ 4.95 µM)
[3]; [19]
  MIC Streptococcus pyogenes (GC 4563): 16 µg/mL (≈ 9.9 µM)
[3]; [20]
  MIC Streptococcus agalactiae (GC 4564): 16 µg/mL (≈ 9.9 µM)
[3]; [21]
  MIC Streptococcus pneumoniae (GC 4565): 8 µg/mL (≈ 4.95 µM)
[4]
  MIC Escherichia coli (ATCC 25922): 32 µg/mL (≈ 19.8 µM)
  MIC Escherichia coli (GC 4559): 64 µg/mL (≈ 39.6 µM)
  MIC Escherichia coli (GC 4560): 16 µg/mL (≈ 9.9 µM)
